In patent US9714244B2, “Substituted pyrido[4,3-d]pyrimidines as Wee-1 inhibitors” (ALMAC DISCOVERY LIMITED, priority 2013, dated 2017):
Counter-ions that a name gives are not always drawn.

How the values were obtained:
[1] = test system: phospho-cdc2 (Tyr15) in HT-29 cells; test: Effect on phosphorylation of cdc2 at Tyr15 in HT-29 cells (PathScan ELISA); assay type: cell-based; conditions: Homo sapiens, HT-29, 8 h; HT29 cells, eight hours incubation; read-out: HT29 pCDC2 activity
Method: Method 2: Determining the effect of compounds on the phosphorylation of cdc2 at Tyr15
The colorectal cancer cell lines HT-29 and HCT-116 were purchased from the ATCC and routinely maintained in McCoy's Medium (Invitrogen) supplemented with 10% Foetal Calf Serum.
The cells were trypsinised from their growing vessel and counted, 100 μL of cell suspension containing 6000 cells was pipetted into black 96 well Co-star plates and incubated overnight to allow adherence to the surface at a temperature of 37° C. and an atmosphere of 5% CO2. Test compounds were formulated in DMSO and diluted in foetal calf serum supplemented medium. Incubating medium was removed by aspiration and diluted drug supplemented medium added to each well.
The plate was returned to the incubator for an additional eight hours at 37° C. and an atmosphere of 5% CO2. Post incubation, the drug supplemented medium was aspirated from each well and the cells were washed once in ice-cold phosphate buffered saline (PBS). 100 μL of cell lysis buffer (Cell Signalling Technologies #9803) containing 20 mM Tris, 150 mM NaCl, 1 mM EDTA, 1 mM EGTA, 1% Triton-X100, 2.5 mM sodium pyrophosphate, 1 mM glycerophosphate, 1 mM Na3VO4 and 1 μg/mL leupeptin was added to each well of the 96 well plate and incubated at 4° C. for 30 min. The samples on the plate were snap frozen at −80° C. until required.
Immediately before the continuation of the assay, the sample plate was thawed and centrifuged at 4° C. for 10 min and the supernatant transferred to secondary tubes or 96 well plate.
Cell supernatant was mixed in a ratio of 1:1 with sample dilutent buffer and vortexed for one minute. 100 μL of diluted sample was pipetted into pre-coated plates containing a rabbit polyclonal antibody for phospho-cdc2 (Tyr15) (Cell Signalling Technologies PathScan kit #7176). The plate was sealed and incubated overnight at 4° C.
The plate seal was removed and the well contents aspirated, followed by 3×5 min washes with 200 μL of diluted wash buffer. Between each wash the plate was tapped firmly onto blotting paper to ensure the removal of all kit solution. 100 μL of kit detection antibody was added to each well and the plate re-sealed and incubated at 37° C. for 1 h. Post incubation the plate was washed and processed in a similar manner to that previously described.
100 μL of horseradish peroxidise-linked secondary antibody was added to each test well, the plate sealed and incubated for thirty minutes at 37° C. Post incubation, the plate was washed as previously stated, followed by the addition of 100 μL of 3,3′,5,5′ tetramethylbenzidine (TMB reagent). The plate was sealed and incubated at RT for 30 min.
100 μL of stop solution was added to each well and the underside of the plate wiped with a lint-free tissue, prior to spectrophotometric determination. Absorbance from each well was read at 450 nm within 30 min of the addition of the stop solution.
The percentage of phospho-cdc2 was calculated compared to DMSO control and plotted versus the concentration of inhibitor using GraphPad Prism. Data was fitted using non-linear regression analysis and IC50 values generated.

[2] = molecular target: human ether a go-go related gene (hERG) K+ channel (Homo sapiens (Human), UniProt Q12809); test: hERG inhibition, IonWorks patch clamp electrophysiology; assay type: cell-based; conditions: 8-point curve from 11 μM
Sequence of human ether a go-go related gene (hERG) K+ channel (Q12809 whole entry): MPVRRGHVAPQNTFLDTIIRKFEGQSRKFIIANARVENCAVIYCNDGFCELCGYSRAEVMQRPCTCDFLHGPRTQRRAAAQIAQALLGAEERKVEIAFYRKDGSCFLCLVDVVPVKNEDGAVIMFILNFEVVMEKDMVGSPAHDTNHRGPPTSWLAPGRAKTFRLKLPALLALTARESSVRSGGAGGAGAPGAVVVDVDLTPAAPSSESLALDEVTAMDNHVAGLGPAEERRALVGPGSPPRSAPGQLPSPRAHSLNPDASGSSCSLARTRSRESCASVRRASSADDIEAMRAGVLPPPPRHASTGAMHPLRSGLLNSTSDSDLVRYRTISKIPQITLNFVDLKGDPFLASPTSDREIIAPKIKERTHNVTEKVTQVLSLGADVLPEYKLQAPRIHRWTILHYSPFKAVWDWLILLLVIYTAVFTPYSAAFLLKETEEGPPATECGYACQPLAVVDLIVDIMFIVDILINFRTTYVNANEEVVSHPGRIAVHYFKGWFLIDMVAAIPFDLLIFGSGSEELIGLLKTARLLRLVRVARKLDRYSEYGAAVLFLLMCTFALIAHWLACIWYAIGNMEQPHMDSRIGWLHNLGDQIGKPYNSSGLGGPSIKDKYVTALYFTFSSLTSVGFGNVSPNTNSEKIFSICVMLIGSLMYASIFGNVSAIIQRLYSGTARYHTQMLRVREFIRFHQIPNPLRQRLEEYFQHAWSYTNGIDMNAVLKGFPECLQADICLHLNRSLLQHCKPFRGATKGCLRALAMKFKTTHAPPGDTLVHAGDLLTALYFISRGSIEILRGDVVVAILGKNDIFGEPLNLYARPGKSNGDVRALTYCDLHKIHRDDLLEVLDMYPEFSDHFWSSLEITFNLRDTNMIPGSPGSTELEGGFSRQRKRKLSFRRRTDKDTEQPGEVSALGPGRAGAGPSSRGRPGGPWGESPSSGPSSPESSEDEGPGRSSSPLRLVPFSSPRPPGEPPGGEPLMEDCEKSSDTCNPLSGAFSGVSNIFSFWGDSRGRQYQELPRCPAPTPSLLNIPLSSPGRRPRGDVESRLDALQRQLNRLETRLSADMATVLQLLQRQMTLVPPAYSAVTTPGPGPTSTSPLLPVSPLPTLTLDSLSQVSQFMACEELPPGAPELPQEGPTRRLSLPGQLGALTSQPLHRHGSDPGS
Method: Compounds were tested for inhibition of the human ether a go-go related gene (hERG) K^+ channel using IonWorks patch clamp electrophysiology at Essen BioScience.

[3] = Human hepatocyte assay CLint; assay type: in vitro ADME; conditions: hepatocytes
Method: (§1) Compounds of the present invention have good stability in human and/or rat hepatocyte incubations. In particular, representative examples 7, 8, 13, 18, 20 have CLint of <20 μL/min/10^6 cells in a human hepatocyte assay and/or <40 μL/min/10^6 cells in a rat hepatocyte assay.

[4] = Oral bioavailability in rat; conditions: in vivo
Text: Compounds of the present invention are orally bioavailable.

[5] = Rat hepatocyte assay CLint; assay type: in vitro ADME; conditions: hepatocytes
Method: as §1

Wee-1 kinase = Wee-1 kinase (Homo sapiens (Human), UniProt P30291); test: Measurement of Wee-1 kinase activity (ADP-Glo); assay type: biochemical; conditions: read-out: Wee-1 IC50 activity
Sequence of Wee-1 kinase (P30291 whole entry): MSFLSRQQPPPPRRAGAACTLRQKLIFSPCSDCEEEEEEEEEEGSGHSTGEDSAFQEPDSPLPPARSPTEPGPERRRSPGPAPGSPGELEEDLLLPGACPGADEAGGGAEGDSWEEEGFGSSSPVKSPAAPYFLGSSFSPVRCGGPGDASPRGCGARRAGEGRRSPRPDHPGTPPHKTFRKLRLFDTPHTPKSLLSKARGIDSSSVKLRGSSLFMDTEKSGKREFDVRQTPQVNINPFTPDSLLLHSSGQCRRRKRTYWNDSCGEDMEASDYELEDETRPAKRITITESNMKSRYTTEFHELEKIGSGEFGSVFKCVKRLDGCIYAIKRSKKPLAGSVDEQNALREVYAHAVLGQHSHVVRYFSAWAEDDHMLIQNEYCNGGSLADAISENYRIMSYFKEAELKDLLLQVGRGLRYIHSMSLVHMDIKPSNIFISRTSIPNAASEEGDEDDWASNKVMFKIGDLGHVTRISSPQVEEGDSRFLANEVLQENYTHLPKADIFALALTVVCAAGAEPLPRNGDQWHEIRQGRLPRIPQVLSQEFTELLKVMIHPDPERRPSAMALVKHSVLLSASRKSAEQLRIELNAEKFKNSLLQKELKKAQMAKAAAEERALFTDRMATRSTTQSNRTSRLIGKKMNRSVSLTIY
Method: Method 1: Measurement of Wee-1 kinase activity
In the measurement of Wee-1 activity, a commercial peptide Poly(Lys Tyr(4:1)) hydrobromide was purchased from Sigma Aldrich and used as the substrate. Activated Wee-1 kinase was purchased from Invitrogen (PV3817) and an ADP-Glo luminescent kit was purchased from Promega.
All reactions took place in […] volumes in reaction buffer containing 40 mM Tris-HCl and 20 mM magnesium chloride, supplemented with 0.1 mg/mL bovine serum albumin and 2 mM DTT. Compounds were serially diluted in buffer and 5 μL of each concentration pipetted into a white 384 well plate (Sigma Aldrich M6186). A 5 μL aliquot of the Wee-1 enzyme was added to each well and the plate centrifuged for 1 min to ensure mixing of the enzyme and inhibitor.
The plate was incubated at room temperature for 30 minutes before the addition of 2.0 μg/mL of substrate and 30 μM ATP in a 5 μL aliquot. The plate was centrifuged for one minute and incubated for 1 h at RT.
15 μL of ADP-Glo stop reagent was added to each well to quench the reaction and deplete unconverted ATP. The plate was incubated for a further 40 min in the dark at RT.
30 μL of ADP-Glo kinase detection reagent was added to each well, converting ADP to ATP, catalysing the generation of luciferin by luciferase. The plate was shaken for 1 min, and incubated in the dark for an additional hour.
Luminescence from each well was detected using the Biotek Synergy4 HD plate reader and the percentage inhibition of kinase activity calculated for each inhibitor tested. Positive (kinase only) and negative (no kinase) controls were added to each plate to ensure specific interaction of kinase and inhibitor. The IC50 concentration for each inhibitor was calculated by plotting the percentage kinase inhibition against concentration of inhibitor and the curve generated by non-linear regression fitting.

[6] = CLint estimates using human liver microsomes; assay type: in vitro ADME; conditions: pH 7.4, read-out: HLM activity (HLM CLint)
Method: Method for the Determination of CLint Estimates Using Human Liver Microsomes
Test compounds (final concentration=1 μM; final DMSO concentration=0.1%) were incubated in 0.1M phosphate buffer pH 7.4 with human liver microsomes (0.5 mg of protein/mL) at 37° C. Reactions were started by addition of NADPH in 0.1M phosphate buffer pH 7.4 (final concentration 1 mM). 40 μL aliquots were removed at 2, 5, 10, 15, 20, 30, 40 and 50 min. Reactions were quenched in 80 μL of ice-cold methanol. Samples were subsequently frozen overnight then centrifuged at 3500 rpm for 20 min at 4° C. The supernatants were removed and transferred into analytical plates and analysed by LC/MS/MS.
All samples were analysed on a Waters Acquity I-Class coupled to a Waters Xevo TQD mass spectrometer. A Waters BEH C18 2.1×50 mm 1.7 μm column was used and mobile phases were water and methanol containing 0.1% formic acid as modifier. Analysis was by multiple reaction monitoring and conditions were optimised for each test compound.
From a plot of ln peak area against time, the gradient of the line is determined. Subsequently, half-life and intrinsic clearance are calculated using the following equations.

CYP2D6 = CYP2D6 (Homo sapiens (Human), UniProt P10635); test: Time dependent CYP inhibition: CYP2D6; assay type: in vitro ADME; conditions: 30 min pre incubation ±NADPH relative to direct inhibition IC50 with no pre-incubation
Sequence of CYP2D6 (P10635 whole entry): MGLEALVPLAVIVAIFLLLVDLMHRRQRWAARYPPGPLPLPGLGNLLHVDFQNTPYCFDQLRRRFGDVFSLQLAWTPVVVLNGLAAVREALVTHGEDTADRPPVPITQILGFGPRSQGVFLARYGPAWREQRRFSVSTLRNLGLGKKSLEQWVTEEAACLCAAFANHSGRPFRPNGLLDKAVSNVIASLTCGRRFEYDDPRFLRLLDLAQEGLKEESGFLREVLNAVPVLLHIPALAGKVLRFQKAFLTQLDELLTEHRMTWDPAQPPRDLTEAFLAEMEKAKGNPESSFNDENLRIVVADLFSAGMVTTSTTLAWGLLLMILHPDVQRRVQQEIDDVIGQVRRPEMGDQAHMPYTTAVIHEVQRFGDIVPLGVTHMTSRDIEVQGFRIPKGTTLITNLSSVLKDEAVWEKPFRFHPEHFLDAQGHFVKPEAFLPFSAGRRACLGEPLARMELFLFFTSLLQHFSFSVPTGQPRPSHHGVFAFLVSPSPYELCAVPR
Text: (§2) Compounds of the present invention have no time dependent CYP inhibition.

CYP2C9 = CYP2C9 (Homo sapiens (Human), UniProt P11712); test: Time dependent CYP inhibition: CYP2C9; assay type: in vitro ADME; conditions: 30 min pre incubation ±NADPH relative to direct inhibition IC50 with no pre-incubation
Sequence of CYP2C9 (P11712 whole entry): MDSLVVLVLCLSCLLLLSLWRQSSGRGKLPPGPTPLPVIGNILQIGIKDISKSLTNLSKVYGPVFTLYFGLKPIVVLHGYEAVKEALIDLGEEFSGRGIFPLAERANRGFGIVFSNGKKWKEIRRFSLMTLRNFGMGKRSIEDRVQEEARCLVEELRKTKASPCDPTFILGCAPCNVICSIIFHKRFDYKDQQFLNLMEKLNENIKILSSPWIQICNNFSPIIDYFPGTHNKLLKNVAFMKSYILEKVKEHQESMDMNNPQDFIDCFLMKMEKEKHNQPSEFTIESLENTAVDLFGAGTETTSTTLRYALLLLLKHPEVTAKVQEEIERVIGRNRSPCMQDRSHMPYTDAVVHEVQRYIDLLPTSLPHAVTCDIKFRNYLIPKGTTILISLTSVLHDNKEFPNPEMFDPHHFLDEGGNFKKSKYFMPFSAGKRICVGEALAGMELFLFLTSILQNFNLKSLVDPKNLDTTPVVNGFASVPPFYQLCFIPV
Text: as §2

CYP3A4 = CYP3A4 (Homo sapiens (Human), UniProt P08684); test: Time dependent CYP inhibition: CYP3A4; assay type: in vitro ADME; conditions: 30 min pre incubation ±NADPH relative to direct inhibition IC50 with no pre-incubation
Sequence of CYP3A4 (P08684 whole entry): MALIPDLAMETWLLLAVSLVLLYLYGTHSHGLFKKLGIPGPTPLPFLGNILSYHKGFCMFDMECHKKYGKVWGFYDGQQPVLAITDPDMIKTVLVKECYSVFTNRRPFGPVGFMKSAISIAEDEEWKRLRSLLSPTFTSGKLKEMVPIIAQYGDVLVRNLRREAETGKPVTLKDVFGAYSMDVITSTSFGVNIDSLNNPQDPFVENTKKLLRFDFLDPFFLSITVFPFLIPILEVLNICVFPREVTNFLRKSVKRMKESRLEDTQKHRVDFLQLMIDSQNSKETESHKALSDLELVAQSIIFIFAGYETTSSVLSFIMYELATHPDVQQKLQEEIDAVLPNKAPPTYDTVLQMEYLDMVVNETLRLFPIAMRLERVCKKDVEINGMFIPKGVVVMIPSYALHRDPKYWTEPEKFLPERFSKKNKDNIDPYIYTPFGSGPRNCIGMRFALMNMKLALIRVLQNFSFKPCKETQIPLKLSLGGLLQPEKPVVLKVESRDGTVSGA
Text: as §2

CYP2C19 = CYP2C19 (Homo sapiens (Human), UniProt P33261); test: Time dependent CYP inhibition: CYP2C19; assay type: in vitro ADME; conditions: 30 min pre incubation ±NADPH relative to direct inhibition IC50 with no pre-incubation
Sequence of CYP2C19 (P33261 whole entry): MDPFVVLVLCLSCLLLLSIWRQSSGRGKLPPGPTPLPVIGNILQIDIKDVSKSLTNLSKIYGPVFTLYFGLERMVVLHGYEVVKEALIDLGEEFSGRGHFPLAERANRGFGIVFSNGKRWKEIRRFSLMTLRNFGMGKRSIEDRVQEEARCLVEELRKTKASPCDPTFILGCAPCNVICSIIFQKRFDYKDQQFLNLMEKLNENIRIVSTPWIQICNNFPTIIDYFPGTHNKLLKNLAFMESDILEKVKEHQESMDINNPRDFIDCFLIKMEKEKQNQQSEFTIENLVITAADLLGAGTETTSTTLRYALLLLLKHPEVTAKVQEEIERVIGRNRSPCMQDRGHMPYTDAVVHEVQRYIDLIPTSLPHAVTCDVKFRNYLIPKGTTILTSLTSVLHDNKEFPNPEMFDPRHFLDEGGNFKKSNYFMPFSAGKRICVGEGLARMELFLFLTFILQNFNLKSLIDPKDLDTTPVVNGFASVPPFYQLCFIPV
Text: as §2

For `Cc1cc(Nc2ncc3c(=O)n(-c4c(Cl)cccc4Cl)ccc3n2)ccc1N1CCNCC1` [Example 7, 6-(2,6-Dichlorophenyl)-2-((3-methyl-4-(piperazin-1-yl)phenyl)amino)pyrido[4,3-d]pyrimidin-5(6H)-one], the IC50 [1] was ≤ 100 nM, the IC50 [2] was 1000 to 10000 nM and the hepatocyte CLint [3] was < 20 µL/min/1e6 cells. For the same compound, the bioavailability [4] was > 25%, the hepatocyte CLint [5] was < 40 µL/min/1e6 cells and the IC50 (Wee-1 kinase) was < 10 nM. For the same compound, the microsomal CLint at 1 μM [6] was ≤ 20 µL/min/mg.
In the case of `COc1cc(Nc2ncc3c(=O)n(-c4c(Cl)cccc4Cl)ccc3n2)ccc1N1CCNCC1` [Example 13, 6-(2,6-Dichlorophenyl)-2-((3-methoxy-4-(piperazin-1-yl)phenyl)amino)pyrido[4,3-d]pyrimidin-5(6H)-one, HCl], the “time dependent inhibition of CYP2D6: shift in IC50” value (CYP2D6) is reported as < 2 fold, the IC50 [1] is reported as ≤ 100 nM and the IC50 [2] is reported as ≥ 10000 nM. The hepatocyte CLint [3] was < 20 µL/min/1e6 cells, the “time dependent inhibition of CYP2C9: shift in IC50” value (CYP2C9) was < 2 fold and the bioavailability [4] was > 25%. For the same compound, the hepatocyte CLint [5] was < 40 µL/min/1e6 cells, the IC50 (Wee-1 kinase) was < 10 nM and the “time dependent inhibition of CYP3A4: shift in IC50” value (CYP3A4) was < 2 fold. The microsomal CLint at 1 μM [6] was ≤ 20 µL/min/mg and the “time dependent inhibition of CYP2C19: shift in IC50” value (CYP2C19) was < 2 fold.
With `CNCc1cc(Nc2ncc3c(=O)n(-c4c(Cl)cccc4Cl)ccc3n2)ccc1N1CCOCC1` [Example 20, 6-(2,6-Dichlorophenyl)-2-((3-((methylamino)methyl)-4-morpholinophenyl)amino)pyrido[4,3-d]pyrimidin-5(6H)-one] the “time dependent inhibition of CYP2D6: shift in IC50” value (CYP2D6) was < 2 fold, the IC50 [1] was ≤ 100 nM and the IC50 [2] was ≥ 10000 nM. The hepatocyte CLint [3] was < 20 µL/min/1e6 cells, the “time dependent inhibition of CYP2C9: shift in IC50” value (CYP2C9) was < 2 fold and the bioavailability [4] was > 25%. For the same compound, the hepatocyte CLint [5] was < 40 µL/min/1e6 cells, the IC50 (Wee-1 kinase) was < 10 nM and the “time dependent inhibition of CYP3A4: shift in IC50” value (CYP3A4) was < 2 fold. For the same compound, the microsomal CLint at 1 μM [6] was ≤ 20 µL/min/mg and the “time dependent inhibition of CYP2C19: shift in IC50” value (CYP2C19) was < 2 fold.
